The source of these data is US11246910B2, “Methods of treating immunological disorders using immunosuppressive compositions” (Singapore Health Services Pte Ltd, priority 2016, dated 2022).

A value given as a limit tells only on which side of the number the result lay.

Data set [1] concerns two HLA-mismatched UCB-MNCs. Briefly: Mixed lymphocyte reaction (MLR), cell-mediated cytotoxicity by LDH detection (in vitro GVHD model). Type of data set: cell-based, human. The conditions noted are these: lowest concentration giving maximum repression of cytotoxicity in MLR (FIG. 3). The protocol:
MLR served as an in vitro GVHD model and was initiated by co-culturing two HLA-mismatched UCB-MNCs at 15:1 effector/target (E/T) ratios in […] medium (Stem Cell Technologies) for 20 hours in 37° C., 5% CO2 incubator. The mixed lymphocytes (ML) were treated with BM-MSCs by co-culture without transwell inserts (i.e. physical direct contact) or with transwell inserts (i.e. indirect bidirectional regulation via the two secretomes) or with BM-MSC-conditional medium. Transwell inserts were placed at 0.5 mm and 0.9 mm above the well bottom, and the 1-day old BM-MSC culture medium was used as conditional medium (1d-CM). Untreated MLR was used as a negative control to set the cell-mediated cytotoxicity baseline of the MLR. The cell-mediated cytotoxicity was measured by lactate dehydrogenase (LDH) cytotoxicity detection kit (Roche). Following the kit instruction, the detection plate was incubated in the dark for 20 minutes at room temperature, and absorbance was measured at 490 nm with 650 nm as reference wavelength using Benchmark Plus microplate spectrophotometer (Bio-Rad).
All the proteins and antibodies were purchased from Peprotech. For each molecule, the lowest working concentration that caused the maximum repression of cytotoxicity by MLR was used for further analysis. In order to determine the optimal combination of interested cytokines, the twelve molecules were arranged in a 2^12 fractional FD table (Table 3). There were twelve factors with two levels. Level-1 meant without addition of this interested molecule, level-2 meant addition of this interested molecule with optimal working concentration. Condition-1 without addition of any interested molecules served as negative control; Condition-16 with addition of full panel of interested molecules and MLR laid on MSCs served as positive control respectively.
Based on the maximal extend attenuating cell-mediated cytotoxicity, another 2^7 factorial FD (Table 4) was derived from Condition-6 in 2^12 fractional FD, which involved IL-10, OPG, CXCL5, CXCL6, CCL20 anti-CCL1 and anti-CCL24.
Similarly, a 2^4 full FD (Table 5) was further derived from Condition-6 in 2^7 fractional FD, which involved OPG, CXCL5, anti-CCL1 and anti-CCL24.

In a further data set the test system is healthy NSG mice. The data set is described as follows: Maximum tolerance dose (MTD) study. Type of data set: in vivo. An excerpt:
Two doses of anti-CCL24 antibody and CXCL5 chemokine were administrated to 8-10 week-old healthy NSG mice by intravenous (IV) injection at day-1 and day-3 of every week. […]

For another data set, the system named is NSG mice with GVHD. Briefly: Xenogeneic GVHD mouse model (human PBMCs into irradiated NSG mice).
The mark [2] stands for this setting: histological score in NSG mice, H&E, Table 7.

Method for NSG mice with GVHD: Moderate and severe xenogeneic GVHD mouse model was induced by injecting 200×10^6 cells/kg and 400×10^6 cells/kg of human cryopreserved PBMCs to NSG mice respectively by IV injection via tail vein. 240 cGy of irradiation was given to the mice 3-4 hours before the transplantation. […] NSG mice injected with dPBS were used as negative control. […] Injection volume was normalized to the body weight of the mice. Mouse survival was monitored daily, while clinical scoring was done every three days. 30-40 ul of mouse peripheral blood (PB) was collected from tail vein every 3 days, from day 18 onwards until day 36 post-treatment. Mouse plasma and isolated cells from PB, marrow and spleen were used for luminex assay (Bio-rad) and flow cytometry analysis (CyAN, Beckman coulter). […] At day 0, human PBMCs were transplanted into NSG mice to create the referenced GVHD model. The onset of GVHD is took place around day 10 to day 12 PT. Treatment of the sick mice commenced on day 10, day 14, day 17 and day 21 PT, and samples were taken from the mice on day 18, 21, 24, 27, 30, 33 and 36 PT.
Mouse survival was monitored daily and clinical score (for GVHD) was monitored every three days. The assessment of clinical GVHD index was based on five parameters: weight loss, posture, activity, fur texture and skin integrity, giving a maximum index of 10. At experimental end-point on day 30 post-treatment, histological evaluation was performed on representative mice on the following tissues: skin, small intestine and kidney with Haematoxylin and Eosin (H&E) stain. Key histological parameters assessed were different for each tissue type according to accepted published criteria for acute GVHD in the different organ systems. Basal vacuolar change, spongiosis and lymphocytic satelittosis were graded for skin; crypt apoptosis, lymphocytic inflammation and intraepithelial lymphocytosis was graded for small intestine; and interstitial inflammation, tubulitis and arterial changes were graded for kidney. All parameters were graded with 4 tiers (none, mild, moderate and severe) and given a score of 0-3, giving a maximum index of 27 (Table 7). The slides were scored in blinded fashion by a single observer.
Circulating human source cytokines/chemokines were measured using a Bio-plex Pro Human Cytokine 17-plex kit (Bio-rad). It included analytes of G-CSF, GM-CSF, IFN-γ, IL-1β, IL-2, IL-4, IL-5, IL-6, IL-7, IL-8, IL-10, IL-12, IL-13, IL-17A, MCP-1, MIP-1β and TNF-α in the analysis. Following the standard protocol, 16 times diluted plasma samples were incubated with magnetic beads for 2 hours, the with detection antibodies for 1 hour and finally with streptavidin-PE for 10 minutes at room temperature. Three complete wash steps were required between each incubation step. The plate was read on Milliplex Analyzer (Millipore) with Luminex xPONENT software.
Cells isolated from NSG mouse peripheral blood (PB) harvested from tail vein, BM and spleen were subjected to flow cytometric analysis using CyAN (Beckman coulter) with Summit software.

Regarding “CXCL5: epithelial-derived neutrophil-activating protein 78, a CXC chemokine; human source”, in data set [1], the “optimal in vitro working concentration” value stood at 50 ng/mL. The “well-tolerated dose, deemed safe” value in the data set on healthy NSG mice (IV twice per week, NSG mice) came to 200 ng/mL. The body weight entry in the data set with healthy NSG mice (gradually increasing dose, 18 days (FIG. 5A)) is recorded as “stably maintained”. Further, in the data set on NSG mice with GVHD (setting [2]), the “Kidney: Arterial changes” value is “none (graded with 4 tiers (none, mild, moderate and severe) and given a score of 0-3)”; the “Kidney: Interstitial inflammation” value is “mild (graded with 4 tiers (none, mild, moderate and severe) and given a score of 0-3)”; the “Kidney: Tubulitis” value was “mild (graded with 4 tiers (none, mild, moderate and severe) and given a score of 0-3)”; the “Skin: Lymphocytic satelitosis number of cells” value is below 5. In addition, in the data set on NSG mice with GVHD (setting [2]), the “Skin: Lymphocytic satelitosis, grade” value was “mild (graded with 4 tiers (none, mild, moderate and severe) and given a score of 0-3)”; the “Skin: Vacuolar change” value was “none (graded with 4 tiers (none, mild, moderate and severe) and given a score of 0-3)”; the “Skin: spongiosis” value is “none (graded with 4 tiers (none, mild, moderate and severe) and given a score of 0-3)”; the “Small intestine: Apoptosis” value was 1 /hpf. In addition, in the data set on NSG mice with GVHD (setting [2]), the “Small intestine: Apoptosis, grade” value was “mild (graded with 4 tiers (none, mild, moderate and severe) and given a score of 0-3)”; the “Small intestine: Intraepithelial lymphocytosis” value is 2/50 epithelial /50 epithelial cells; the “Small intestine: Intraepithelial lymphocytosis, grade” value was “cells(mild) (graded with 4 tiers (none, mild, moderate and severe) and given a score of 0-3)”; the “Small intestine: Lymphocytic inflammation” value is “mild (graded with 4 tiers (none, mild, moderate and severe) and given a score of 0-3)”. In the data set with NSG mice with GVHD (maximum index 27, Mild, 0-9, moderate, 10-18, Severe, 19-27), the “Σscore (overall histological score)” value was determined as 6. In the data set with NSG mice with GVHD (moderate GVHD), the 36-day survival amounted to 78.3% and the symptoms result was “mild”. For the same substance, in the data set on NSG mice with GVHD (plasma, Luminex 17-plex (FIGS. 8, 11)), the “human pro-inflammatory cytokine secretion in the circulation” value was “comparable to the 2F cocktail in the suppression of pro-inflammatory cytokines IFN-γ, IL-6, IL-8, and MIP-1β”. Also, in the data set with NSG mice with GVHD (severe GVHD), the 36-day survival stood at 26.1% and the symptoms result is recorded as “moderate”. For the same substance, the “immunosuppression effect on circulating CTLs, Th1 cells, splenic macrophages and NK cells” value in the data set on NSG mice with GVHD (single factor alone, cell population assay (FIG. 10)) is reported as “suboptimal immunosuppression effect”.
